Consider eleven compounds from ChEMBL document CHEMBL1201862, “PubChem BioAssay data set” (2004).

A word on the GI50: it is the concentration that inhibits growth by half.

Among the test systems are MDA-MB-435; SN12C; A549; U-251; 786-0; MCF7; SW-620; HCT-116; IGROV-1; HCT-15; NCI-H226; SK-OV-3; UACC-257; RPMI-8226; HT-29; COLO 205; OVCAR-4; EKVX; CCRF-CEM; HL-60.
What all share (assay): DTP human tumour cell line panel, 48 h

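Cultured in 96-well plates, cells were exposed to test compound for 48 hours across five concentrations. Abbreviation: GI50, concentration required for 50% inhibition of growth.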 The source made the active and inactive calls. No stated cut-off is given here; in the data, active = GI50 up to about 1.1 µM and inactive = higher. Bounds are passed on as bounds.

Take `CN(C)CCCNc1cc(O)c2c(c1O)C(=O)c1ccccc1C2=O`: the GI50 was 15.5 µM (inactive) in the test on MDA-MB-435; 3.48 µM (inactive) in the test on SN12C; 10.9 µM (inactive) in the test on A549; 13.2 µM (inactive) in the test on U-251; 7.67 µM (inactive) in the test with 786-0; 11.6 µM (inactive) with MCF7. Also, the GI50 in the test with SW-620 was 8.65 µM (inactive); in the test on HCT-116, 4.9 µM (inactive); with IGROV-1 it was 10.6 µM (inactive); with HCT-15 it was 5.26 µM; in the test on NCI-H226, 18.2 µM (inactive); in the test with SK-OV-3 it was 12.2 µM (inactive). Further, the GI50 was 13.6 µM (inactive) in the test with UACC-257; 12.9 µM (inactive) in the test with RPMI-8226; 11 µM (inactive) with HT-29; 11.5 µM (inactive) with COLO 205; 12.1 µM (inactive) in the test on OVCAR-4; 15 µM (inactive) in the test with EKVX.

With `c1cncc(CNCCN2CCNCC2)c1`, the GI50 with MDA-MB-435, in the test on SN12C, in the test with A549, in the test with U-251, with 786-0 and with MCF7 was > 100 µM (inactive) in each case. In addition, the GI50 in the test on SW-620 was > 100 µM (inactive); in the test on HCT-116 it was > 100 µM (inactive); in the test with IGROV-1 it was > 100 µM (inactive); with HCT-15, > 100 µM; with NCI-H226, > 100 µM (inactive); in the test on SK-OV-3 it was > 100 µM (inactive). Further, the GI50 in the test on UACC-257, in the test on RPMI-8226, with HT-29, in the test with COLO 205, with OVCAR-4 and with EKVX was > 100 µM (inactive) throughout.

In the case of `COP(C)(=O)C1=CCN(C(=O)OCC[Si](C)(C)C)CC1` (stereo unspecified), the GI50 in the test with MDA-MB-435, in the test with A549, in the test with U-251, with 786-0, in the test on CCRF-CEM and in the test with MCF7 was > 100 µM (inactive) each time. Moreover, the GI50 in the test on SW-620 is > 100 µM (inactive); in the test on IGROV-1, > 100 µM (inactive); in the test with HCT-15, > 100 µM; with NCI-H226 it was > 100 µM (inactive); with SK-OV-3, > 100 µM (inactive); in the test on UACC-257, > 100 µM (inactive). The GI50 with RPMI-8226, in the test on HT-29, in the test on COLO 205, with OVCAR-4 and with EKVX was > 100 µM (inactive) in each case.

As for `N#Cc1nc(-c2ccccn2)c(-c2ccccn2)nc1C#N`, the GI50 with MDA-MB-435 is 2.7 µM (inactive); in the test on SN12C, 4.82 µM (inactive); in the test on A549 it was 1.14 µM (inactive); with U-251 it was 2.32 µM (inactive); in the test on 786-0, 0.515 µM (active); with CCRF-CEM, 2.69 µM (inactive). The GI50 in the test with MCF7 was 1.22 µM (inactive); with SW-620, 3.08 µM (inactive); in the test on HCT-116 it was 0.624 µM (active); in the test with IGROV-1 it was 1.43 µM (inactive); in the test on HCT-15, 0.682 µM; with NCI-H226, 0.593 µM (active). In addition, the GI50 was 1.6 µM (inactive) in the test on SK-OV-3; 3.65 µM (inactive) with UACC-257; 2.83 µM (inactive) in the test on RPMI-8226; 2.82 µM (inactive) in the test with HT-29; 1.97 µM (inactive) with COLO 205; 1.79 µM (inactive) in the test on OVCAR-4. Moreover, in the test on EKVX, the GI50 was 3.15 µM (inactive).

For the compound `O=C(O)Cc1ccc2c(c1)/C(=C1/Nc3ccccc3C1=O)C(=O)N2`, the GI50 in the test with MDA-MB-435 is 36.1 µM (inactive); with SN12C, 56.1 µM (inactive); in the test on A549, 80.9 µM (inactive); in the test on U-251, 39.6 µM (inactive); in the test on 786-0, 27.5 µM (inactive); with CCRF-CEM it was 34.4 µM (inactive). The GI50 in the test on MCF7 is 10.8 µM (inactive); in the test with SW-620, 46.2 µM (inactive); with HCT-116, 24 µM (inactive); with IGROV-1, 0.355 µM (active); in the test on HCT-15 it was 27.6 µM; with NCI-H226 it was 60.8 µM (inactive). The GI50 in the test with SK-OV-3 is 23.4 µM (inactive); in the test with UACC-257 it was 32.3 µM (inactive); in the test on RPMI-8226 it was 27.9 µM (inactive); in the test with HT-29, 38.8 µM (inactive); with COLO 205 it was 35.1 µM (inactive); in the test with OVCAR-4, 21.9 µM (inactive). Besides, in the test with EKVX, the GI50 was 26.2 µM (inactive).

Consider `CON(C)C(=O)[C@H]1C[C@@]1(C)CO`, for which the GI50 with MDA-MB-435, in the test with SN12C, with A549, in the test on U-251, with 786-0 and with CCRF-CEM was > 100 µM (inactive) in each case. In addition, the GI50 in the test on MCF7 is > 100 µM (inactive); in the test on SW-620, > 100 µM (inactive); in the test on HCT-116, > 100 µM (inactive); in the test on IGROV-1, > 100 µM (inactive); with HCT-15 it was > 100 µM; in the test with NCI-H226, > 100 µM (inactive). Further, the GI50 in the test with SK-OV-3, in the test with UACC-257, in the test with HT-29, in the test on COLO 205, with OVCAR-4 and in the test on EKVX was > 100 µM (inactive) throughout.

Take `O=C(O)CNc1cc(-c2ccccc2)nc(NCC(=O)O)n1`: the GI50 in the test on SN12C, in the test with A549, with U-251, in the test on 786-0, in the test with CCRF-CEM and in the test with SW-620 was > 100 µM (inactive) throughout. Moreover, the GI50 is > 100 µM (inactive) with HCT-116; > 100 µM (inactive) with IGROV-1; > 100 µM in the test on HCT-15; > 100 µM (inactive) with NCI-H226; > 100 µM (inactive) with SK-OV-3; > 100 µM (inactive) in the test with UACC-257. Besides, the GI50 in the test on RPMI-8226, in the test with HT-29, in the test with HL-60, in the test with COLO 205, in the test on OVCAR-4 and in the test on EKVX was > 100 µM (inactive) throughout.

For the compound `CC1(C)CC(O)C(C)(C)[C@@H](O)C1` (stereo partly specified), the GI50 in the test on SN12C, with A549, in the test on U-251, in the test on 786-0, with CCRF-CEM and with MCF7 was > 100 µM (inactive) in each case. The GI50 with SW-620 was > 100 µM (inactive); with HCT-116 it was > 100 µM (inactive); in the test on IGROV-1, > 100 µM (inactive); in the test with HCT-15 it was > 100 µM; in the test on NCI-H226 it was > 100 µM (inactive); in the test with SK-OV-3, > 100 µM (inactive). The GI50 in the test with UACC-257, in the test on HT-29, in the test with HL-60, with COLO 205, in the test with OVCAR-4 and in the test with EKVX was > 100 µM (inactive) each time.

For the compound `CC1=C(N2CC2)C(=O)c2nc3n(c2C1=O)CCC3O` (stereo unspecified), the concentration for 50% growth inhibition (GI50) in the test on MDA-MB-435 is 0.0188 µM (active); in the test on SN12C, 0.508 µM (active); with A549, 0.215 µM (active); in the test with U-251 it was 0.157 µM (active); with 786-0 it was 0.179 µM (active); in the test on CCRF-CEM it was 1.36 µM (inactive). The GI50 in the test on SW-620 is 0.153 µM (active); in the test with HCT-116, 0.193 µM (active); with IGROV-1 it was 0.461 µM (active); in the test on HCT-15 it was 13.6 µM; in the test on NCI-H226, 0.697 µM (active); with SK-OV-3 it was 0.249 µM (active). The concentration for 50% growth inhibition (GI50) in the test with UACC-257 is 0.226 µM (active); with RPMI-8226 it was 0.472 µM (active); with HT-29, 0.973 µM (active); with HL-60 it was 0.566 µM (active); in the test on COLO 205 it was 0.41 µM (active); with OVCAR-4, 0.0662 µM (active). In addition, in the test on EKVX, the concentration for 50% growth inhibition (GI50) is 0.438 µM (active).

With `Cc1nc2ccccc2n1Cc1nnc(-c2ccccc2)o1`, the 50% growth inhibitory concentration (GI50) with MDA-MB-435 is 0.104 µM (active); with SN12C, > 100 µM (inactive); with A549, 52.4 µM (inactive); with U-251, > 100 µM (inactive); with 786-0, 38.7 µM (inactive); in the test with CCRF-CEM, > 100 µM (inactive). Further, the GI50 in the test on MCF7 was 63.1 µM (inactive); with SW-620, 90.2 µM (inactive); in the test with HCT-116 it was 46.2 µM (inactive); in the test with IGROV-1 it was 72.9 µM (inactive); in the test with HCT-15, > 100 µM; with SK-OV-3, > 100 µM (inactive). Further, the GI50 in the test on UACC-257 was > 100 µM (inactive); in the test on RPMI-8226 it was 75 µM (inactive); in the test with HT-29 it was 52.5 µM (inactive); in the test with HL-60 it was > 100 µM (inactive); in the test with COLO 205, 74.6 µM (inactive); in the test on EKVX, > 100 µM (inactive).

As to `C=C(C(=O)OC)[C@@H]1C[C@@H](OC(C)=O)C2=C[C@H](C[C@@]3(C)O[C@@H]3C3=CC(C)=C(O3)[C@H]1OC(C)=O)OC2=O` [BIPINNATIN I], the GI50 in the test with MDA-MB-435 is 16.8 µM (inactive); in the test with SN12C, 22.4 µM (inactive); with A549, 40.7 µM (inactive); in the test with U-251, 23.1 µM (inactive); in the test with 786-0, 14.7 µM (inactive); with CCRF-CEM it was 0.0429 µM (active). The GI50 is 8.28 µM (inactive) in the test with MCF7; 4.71 µM (inactive) in the test on SW-620; 10.4 µM (inactive) with HCT-116; 15.3 µM (inactive) with IGROV-1; 17.5 µM in the test on HCT-15; 90.8 µM (inactive) in the test with NCI-H226. Besides, the GI50 was 37.5 µM (inactive) with SK-OV-3; 18.2 µM (inactive) with UACC-257; 5.75 µM (inactive) with RPMI-8226; 6.24 µM (inactive) with HT-29; 10.8 µM (inactive) with COLO 205; 35.2 µM (inactive) in the test on OVCAR-4. For the same compound, the GI50 with EKVX was 18.4 µM (inactive).
